Results on two compounds are retold here after patent US20250011302A1, “INDOLE BIPYRIMIDINE COMPOUND, AND INTERMEDIATE THEREOF, PREPARATION METHOD THEREFOR AND USE THEREOF” (SHANGHAI ALLIST PHARMACEUTICALS CO., LTD., priority 2021, published 2025).

In this test the test system is Ba/F3 EGFR-Del19/T790M/C797S cells. Briefly: Proliferation inhibitory activity against Ba/F3 EGFR-Del19/T790M/C797S cells (PrestoBlue method). To be noted: Mus musculus, Ba/F3 cells stably expressing EGFR Del19/T790M/C797S, 72 hours. The class given is cell-based, murine. The method, then:
The proliferation inhibitory activity of the compounds in vitro against the Ba/F3 EGFR-Del19/T790M/C797S cells from the murine pro B cell line Ba/F3 that stably express EGFR proteins with Del19/T790M/C797S triple mutations, is determined by the PrestoBlue method.
Cell source: Ba/F3 EGFR-Del19/T790M/C797S cells are purchased from Crown Bioscience (Beijing) Co., Ltd.
Ba/F3 EGFR-Del19/T790M/C797S cells are cultured in RPMI1640 complete medium containing 10% fetal calf serum. Take Ba/F3 EGFR-Del19/T790M/C797S cells in the logarithmic growth phase, inoculate them in a 96-well plate at a cell density of 5000 cells/135 μl complete culture medium/well, and place them at a constant temperature incubator containing 5% CO2 at 37° C. for culturing for 24 hours. […]
Take out the 96-well cell culture plate from the CO2 constant temperature incubator, add 15 μl of Invitrogen™ PrestoBlue™ HS cell viability detection reagent (Cat. No.: P50201) to each well, and continue to incubate for 3 hours in the constant temperature incubator containing 5% CO2 at 37° C. Take out the 96-well cell culture plate and measure the fluorescence at the 560 nm excitation wavelength and 590 nm emission wavelength of a microplate reader. […]
Data were analyzed using GraphPad Prism 8.3 software, and nonlinear S-curve regression was used to fit the data to obtain a dose-effect curve, from which the IC50 value was calculated.

In general, IC50 refers to the concentration that gives 50% inhibition. Read a high IC50 as weaker potency. In turn, `CN(C)CCN(C)c1nc(OCC(F)(F)F)c(Nc2nccc(-c3cn(C)c4ccccc34)n2)cc1NC(=O)CCN(C)CCN(C)c1nc(OCC(F)(F)F)c(Nc2nccc(-c3cn(C)c4ccccc34)n2)cc1N` [Compound 1] gave an IC50 of 1860 nM. In turn, `C=CC(=O)Nc1cc(Nc2nccc(-c3cn(C)c4ccccc34)n2)c(OCC(F)(F)F)nc1N(C)CCN(C)CCC(=O)Nc1cc(Nc2nccc(-c3cn(C)c4ccccc34)n2)c(OCC(F)(F)F)nc1N(C)CCN(C)C` [Compound 4] came in with an IC50 of 293 nM.
